Data taken from the CheMixHub viscosity set.

Assay: xn = mol fraction of the nth substance listed

C=CCn1cc[n+](C)c1.O=S(=O)([N-]S(=O)(=O)C(F)(F)F)C(F)(F)F + CCCO
Conditions	viscosity [mPa·s]
313.15 K, 100 kPa, x1 = 0.8974	15.85

CC(=O)N(C)C + CCCO
viscosity [mPa·s]
Conditions	298.15 K	303.15 K	313.15 K
100 kPa, x1 = 0.0535	1.767	–	1.29
100 kPa, x1 = 0.1052	1.618	–	1.206
100 kPa, x1 = 0.2053	1.423	–	1.093
100 kPa, x1 = 0.3066	1.285	–	1.008
100 kPa, x1 = 0.407	1.197	–	0.948
100 kPa, x1 = 0.5061	1.143	–	0.904
100 kPa, x1 = 0.5984	1.097	–	0.8744
100 kPa, x1 = 0.701	1.045	–	0.8402
100 kPa, x1 = 0.8014	0.9977	–	0.8138
100 kPa, x1 = 0.9025	0.9648	–	0.7886
100 kPa, x1 = 0.9583	0.944	–	0.7749
101 kPa, x1 = 0.0966	–	1.47	–
101 kPa, x1 = 0.1975	–	1.293	–
101 kPa, x1 = 0.2992	–	1.193	–
101 kPa, x1 = 0.3986	–	1.103	–
101 kPa, x1 = 0.4894	–	1.048	–
101 kPa, x1 = 0.6025	–	1	–
101 kPa, x1 = 0.697	–	0.963	–
101 kPa, x1 = 0.7955	–	0.93	–
101 kPa, x1 = 0.9012	–	0.898	–

CC(=O)N1CCOCC1 + CCCO
viscosity [mPa·s], 101 kPa
Conditions	293.15 K	303.15 K	313.15 K	323.15 K
x1 = 0.0542	3.211	2.607	2.089	1.678
x1 = 0.1279	4.268	3.591	2.958	2.472
x1 = 0.2156	5.382	4.614	3.842	3.268
x1 = 0.2811	6.079	5.246	4.369	3.728
x1 = 0.3166	6.397	5.529	4.598	3.925
x1 = 0.3902	6.922	5.978	4.928	4.183
x1 = 0.4533	7.294	6.294	5.142	4.331
x1 = 0.5022	7.478	6.414	5.189	4.331
x1 = 0.5437	7.679	6.578	5.289	4.388
x1 = 0.5983	7.857	6.703	5.329	4.375
x1 = 0.6341	7.889	6.699	5.267	4.277
x1 = 0.6883	8.018	6.776	5.259	4.214
x1 = 0.7442	8.069	6.769	5.161	4.062
x1 = 0.7912	8.099	6.748	5.069	3.922
x1 = 0.8542	8.178	6.766	4.986	3.776
x1 = 0.9165	8.328	6.851	4.972	3.702
x1 = 0.9776	8.508	7.001	5.093	3.823

CCCCCCCCCO + CCCO
viscosity [mPa·s], 101 kPa
Conditions	298.15 K	308.15 K	318.15 K
x2 = 0.05	8.682	6.217	4.482
x2 = 0.1	8.263	5.92	4.293
x2 = 0.15	7.846	5.632	4.11
x2 = 0.2	7.432	5.351	3.929
x2 = 0.25	7.022	5.076	3.752
x2 = 0.3	6.618	4.806	3.575
x2 = 0.35	6.22	4.542	3.399
x2 = 0.4	5.83	4.282	3.223
x2 = 0.45	5.447	4.026	3.046
x2 = 0.5	5.073	3.774	2.869
x2 = 0.55	4.708	3.525	2.691
x2 = 0.6	4.352	3.279	2.514
x2 = 0.65	4.005	3.037	2.337
x2 = 0.7	3.668	2.798	2.161
x2 = 0.75	3.34	2.563	1.988
x2 = 0.8	3.022	2.332	1.819
x2 = 0.85	2.712	2.106	1.656
x2 = 0.9	2.412	1.884	1.5
x2 = 0.95	2.12	1.668	1.354

CC(=O)N(C)C + CCO
viscosity [mPa·s], 101 kPa
Conditions	298.15 K	303.15 K	308.15 K	313.15 K	318.15 K
x1 = 0.0653	–	0.9549	0.8702	0.8052	0.7371
x1 = 0.0809	–	0.944	–	–	–
x1 = 0.1358	0.9918	0.9129	0.8423	0.7795	0.716
x1 = 0.1399	–	0.915	–	–	–
x1 = 0.2001	–	0.894	–	–	–
x1 = 0.2123	0.9588	0.8868	0.8171	0.7631	0.7077
x1 = 0.2626	–	0.878	–	–	–
x1 = 0.2954	0.9368	0.8691	0.8034	0.7509	0.6996
x1 = 0.3738	–	0.865	–	–	–
x1 = 0.386	0.9289	0.8634	0.7995	0.751	0.6999
x1 = 0.4854	0.928	0.8622	0.8019	0.753	0.7022
x1 = 0.4935	–	0.861	–	–	–
x1 = 0.5947	0.9232	0.8595	0.7991	0.7552	0.7034
x1 = 0.5953	–	0.862	–	–	–
x1 = 0.6938	–	0.863	–	–	–
x1 = 0.7155	0.9273	0.8639	0.8093	–	0.7108
x1 = 0.7965	–	0.865	–	–	–
x1 = 0.8498	0.9421	0.8705	0.81	–	0.7156
x1 = 0.8971	–	0.867	–	–	–

CC(=O)N1CCOCC1 + CCO
viscosity [mPa·s], 101 kPa
Conditions	293.15 K	303.15 K	313.15 K	323.15 K
x1 = 0.0563	1.847	1.495	1.153	0.928
x1 = 0.1288	2.747	2.302	1.832	1.518
x1 = 0.2164	3.689	3.134	2.511	2.096
x1 = 0.2843	4.374	3.728	2.983	2.484
x1 = 0.3147	4.656	3.974	3.174	2.639
x1 = 0.3944	5.318	4.533	3.594	2.966
x1 = 0.4512	5.718	4.858	3.819	3.122
x1 = 0.4957	6.016	5.101	3.983	3.232
x1 = 0.5253	6.179	5.227	4.056	3.269
x1 = 0.5832	6.499	5.472	4.199	3.343
x1 = 0.6341	6.728	5.638	4.275	3.358
x1 = 0.6813	6.984	5.832	4.387	3.413
x1 = 0.7348	7.169	5.948	4.407	3.369
x1 = 0.7921	7.459	6.164	4.522	3.417
x1 = 0.8452	7.653	6.289	4.554	3.434
x1 = 0.9127	8.019	6.569	4.788	3.615
x1 = 0.9734	8.395	6.932	5.046	3.797

CC(N)=O + CCO
303.15 K, 101 kPa
Conditions	viscosity [mPa·s]
x1 = 0.0327	9.42
x1 = 0.0646	10
x1 = 0.0901	10.16
x1 = 0.1011	12.61

CCCCCCCCCO + CCO
viscosity [mPa·s], 101 kPa
Conditions	298.15 K	308.15 K	318.15 K
x2 = 0.05	8.632	6.193	4.473
x2 = 0.1	8.168	5.872	4.273
x2 = 0.15	7.706	5.558	4.073
x2 = 0.2	7.247	5.25	3.874
x2 = 0.25	6.791	4.945	3.675
x2 = 0.3	6.34	4.645	3.475
x2 = 0.35	5.893	4.347	3.275
x2 = 0.4	5.453	4.052	3.074
x2 = 0.45	5.019	3.759	2.871
x2 = 0.5	4.593	3.469	2.668
x2 = 0.55	4.176	3.182	2.465
x2 = 0.6	3.769	2.898	2.261
x2 = 0.65	3.375	2.619	2.059
x2 = 0.7	2.993	2.345	1.858
x2 = 0.75	2.627	2.078	1.66
x2 = 0.8	–	1.818	1.466
x2 = 0.85	1.946	1.569	1.277
x2 = 0.9	1.635	1.331	1.094
x2 = 0.95	1.346	1.108	0.9197
